The record followed here is US12370263B2, “Cyclic dinucleotide derivative based antibody-drug conjugates” (DAIICHI SANKYO COMPANY, LIMITED, priority 2018, dated 2025).

Structures are written as SMILES. Like-named read-outs stand apart in the source and are kept apart here.

Experiment [1] deals with T1, HisAviTEV-hSTING (139-342) human AQ-mutated protein (Homo sapiens, UniProt Q86WV6, G230A/H232R/R293Q).
T1 construct: made in house; host or cells: E. coli Rosetta 2 (DE3), co-expressed with BirA (1-321)
Briefly: Protein thermal shift assay, STING C-terminal binding domain protein. Conditions: test compound final concentration 0.5 mM.

The target in experiment [2] is T2, HisAviTEV-hSTING (139-342) human wild-type protein (Homo sapiens, UniProt Q86WV6, H232R).
T2 construct: made in house; host or cells: E. coli Rosetta 2 (DE3), co-expressed with BirA (1-321)
The description is as above. Conditions: test compound final concentration 0.5 mM.

The target in the next experiment is Human STING (Homo sapiens, UniProt Q86WV6, G230A/H232R/R293Q/R71H). Briefly: Reporter gene assay, human STING agonist activity, THP1-Dual cells (HAQ-mutated), IRF pathway. Conditions: 24 hours, 100% = maximum count with ML-RR-CDA·2Na+. A general note: A reporter such as luciferase makes a cellular process visible.
For experiment [3], the target named is T3, His-Avi-TEV-mSTING (138-341) mouse wild-type protein (Mus musculus, UniProt Q3TBT3).
T3 construct: made in house; host or cells: E. coli Rosetta 2 (DE3), co-expressed with BirA (1-321)
The experiment is described as follows: Protein thermal shift assay, STING C-terminal binding domain protein. Conditions: test compound final concentration 0.5 mM. As for the experimental part: Each of these expression strains was added to a TB medium containing 100 μg/mL ampicillin, 50 μg/mL streptomycin, and 30 μg/mL kanamycin, cultured at 37° C., then exposed to 100 μM IPTG for inducible expression, and further cultured at 16° C.
The culture solution was centrifuged, and the resulting bacterial cells were suspended in 50 mM HEPES pH 8.0, 500 mM NaCl, 20 mM imidazole, 1 mM DTT, 5% (w/v) glycerol, Complete EDTA free, and then subjected to freeze-thawing. After addition of Lysozyme and DNase I, proteins were extracted by ultrasonic disintegration, and centrifugation was performed and the resulting supernatant was collected. The supernatant obtained was purified by using an AKTA express chromatography system (GE Healthcare, IL, US) with a HisTrap FF column (GE Healthcare), and eluted with buffer (20 mM HEPES pH 7.5, 120 mM NaCl, 20% Glycerol, 0.8 mM DTT) through a Superdex 200 16/60 column (GE Healthcare). […] The protein concentrations were measured by using a NanoDrop2000 (Thermo Fisher Scientific, MA, US), and the proteins were cryopreserved at −80° C. until use.
The binding ability of each compound to the STING C-terminal binding domain proteins was evaluated by protein thermal shift assay, which uses the elevation of thermal denaturation temperature of protein as an index.
Specifically, 3 μL of a test compound (final concentration: 0.5 mM), 3 μL of SYPRO Orange Protein Gel Stain (Thermo Fisher Scientific) (final concentration: 20-fold), and 6 μL of a STING protein were mixed with use of assay buffer (20 mM Tris-HCl pH 7.5, 120 mM NaCl) in a 384-well real-time PCR plate, and mixed together with a plate shaker. With a real-time PCR system (Thermo Fisher Scientific), the temperature was increased from 25° C. to 95° C. at a rate of 0.03° C./sec, and the thermal denaturation temperature of the protein was measured by using fluorescence emitted from SYPRO Orange as an index. From the measurement acquired, Tm (the midpoint of the unfolding transition) (° C.) was determined as a temperature at which the increase rate of fluorescence intensity was maximized by using the analysis software Protein Thermal Shift software (Thermo Fisher Scientific). The Tm value for a well with no compound was subtracted from the Tm value for each test compound to calculate the Tm shift caused by the compound as ΔTm (° C.).

For experiment [4], the target named is T4, HisAviTEV-hSTING (139-342) human REF-mutated protein (Homo sapiens, UniProt Q86WV6).
T4 construct: made in house; host or cells: E. coli Rosetta 2 (DE3), co-expressed with BirA (1-321)
The experiment is described as above. Conditions: test compound final concentration 0.5 mM.

Where [5] appears, read: THP1-Dual cells IRF EC50, THP1-Dual cells (HAQ-mutated).

T4 sequence (Q86WV6 with tags, fused parts or gaps, change not shown): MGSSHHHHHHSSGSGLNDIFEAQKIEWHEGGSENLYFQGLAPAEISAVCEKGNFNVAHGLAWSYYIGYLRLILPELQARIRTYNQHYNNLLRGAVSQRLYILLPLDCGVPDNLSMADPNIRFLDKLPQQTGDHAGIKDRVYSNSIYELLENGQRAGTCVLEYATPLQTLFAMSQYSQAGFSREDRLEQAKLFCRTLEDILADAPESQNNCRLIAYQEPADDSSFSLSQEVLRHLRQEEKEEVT
Sequence of Human STING (Q86WV6 whole entry R71H/G230A/H232R/R293Q): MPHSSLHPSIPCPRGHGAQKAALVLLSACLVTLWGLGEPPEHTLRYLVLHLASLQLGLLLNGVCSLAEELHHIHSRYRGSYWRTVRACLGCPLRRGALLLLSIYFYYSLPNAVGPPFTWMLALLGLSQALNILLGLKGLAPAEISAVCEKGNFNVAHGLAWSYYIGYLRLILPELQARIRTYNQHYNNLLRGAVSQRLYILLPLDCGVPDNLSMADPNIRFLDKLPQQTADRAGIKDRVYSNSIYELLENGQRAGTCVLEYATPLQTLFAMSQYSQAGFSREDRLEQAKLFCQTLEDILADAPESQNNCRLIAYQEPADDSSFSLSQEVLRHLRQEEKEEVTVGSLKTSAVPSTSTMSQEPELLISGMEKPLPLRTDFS
T3 sequence (Q3TBT3 with tags, fused parts or gaps limits assumed): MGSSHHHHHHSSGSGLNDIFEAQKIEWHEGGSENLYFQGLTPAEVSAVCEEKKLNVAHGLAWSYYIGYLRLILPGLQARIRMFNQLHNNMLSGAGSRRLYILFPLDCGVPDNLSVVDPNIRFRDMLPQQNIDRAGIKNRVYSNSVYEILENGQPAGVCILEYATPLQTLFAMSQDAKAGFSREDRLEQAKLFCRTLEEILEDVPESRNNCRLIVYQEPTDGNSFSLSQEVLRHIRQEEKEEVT
T2 sequence (Q86WV6 with tags, fused parts or gaps H232R): as the sequence (Q86WV6 with tags, fused parts or gaps, change not shown) above, with H133R counted along it
T1 sequence (Q86WV6 with tags, fused parts or gaps G230A/H232R/R293Q): as the sequence (Q86WV6 with tags, fused parts or gaps, change not shown) above, with G131A, H133R, R194Q counted along it
Experimental for Human STING: Human STING agonist activity was evaluated by using THP1-Dual™ cells (HAQ-mutated) (InvivoGen, CA, US), with which the activation of the pathway of interferon regulatory factor-3 (IRF3), which is present in the downstream of the STING pathway, can be confirmed.
Assay was performed as follows. First, a test compound diluted with PBS was aliquoted into a transparent 96-well plate (Corning Incorporated, NY, US) at 20 μL/well. Subsequently, reporter cells suspended in assay buffer (an RPMI1640 medium or DMEM medium containing 10% bovine serum albumin) were added at 180 μL/well (1×10^5 cells/well) to initiate stimulation. After the cells were cultured in an environment at 37° C. and 5% CO2 for 24 hours, the resultant was centrifuged to collect the supernatant. To a white 384-well plate, 6 μL of the supernatant collected was added, and 15 μL of QUANTI-Luc (InvivoGen) solution was added thereto. After the resultant was well mixed together, emission was measured by using a plate reader (PerkinElmer, Inc., MA, US).

In the case of `O=C(CO)NCCn1cnc2c(ncn2[C@@H]2O[C@@H]3COP(=O)(S)O[C@H]4[C@@H](F)[C@H](n5cc6c7c(ncnc75)NCCC6)O[C@@H]4COP(=O)(S)O[C@@H]2[C@@H]3O)c1=O` (single isomer, unassigned) [36a], the ΔTm (usually the change in melting temperature against a reference sample) at 500 µM in experiment [1] was 13.3 °C; in experiment [2], 10.8 °C; in experiment [3], 15.4 °C; in experiment [4], 5.8 °C. Besides, on Human STING (setting [5]), the EC50 – broadly, the concentration at which the effect is half-maximal – was determined as 2 µM.
`O=C(CO)NCCn1cnc2c(ncn2[C@@H]2O[C@@H]3COP(=O)(S)O[C@H]4[C@@H](F)[C@H](n5cc6c7c(ncnc75)NCCC6)O[C@@H]4COP(=O)(S)O[C@@H]2[C@@H]3O)c1=O` (single isomer, unassigned) [36b]: the “ΔTm Hu-AQ” value in experiment [1] was 11.8 °C. For the same molecule, the “ΔTm Hu-WT” value in experiment [2] came to 10.1 °C. On Human STING (read-out: THP1-Dual cells IRF EC50, THP1-Dual cells (HAQ-mutated)), the EC50 amounted to 2 µM. Further, the “ΔTm Ms-WT” value in experiment [3] worked out at 19.3 °C. In addition, the “ΔTm Hu-REF” value in experiment [4] was determined as 5.5 °C.
For the molecule `NCCNc1nc(N)c2ncn([C@@H]3O[C@@H]4COP(=O)(S)O[C@H]5[C@@H](F)[C@H](n6cc7c8c(ncnc86)NCCC7)O[C@@H]5COP(=O)(S)O[C@@H]3[C@@H]4O)c2n1` (single isomer, unassigned) [37a], the thermal shift (ΔTm) at 500 µM in experiment [1] was found to be 13.6 °C; in experiment [2], 11.2 °C; in experiment [3] it was 15.3 °C; in experiment [4], 5.2 °C. The molecule further yielded an EC50 on Human STING (setting [5]) of 0.98 µM.
Consider `NCCNc1nc(N)c2ncn([C@@H]3O[C@@H]4COP(=O)(S)O[C@H]5[C@@H](F)[C@H](n6cc7c8c(ncnc86)NCCC7)O[C@@H]5COP(=O)(S)O[C@@H]3[C@@H]4O)c2n1` (single isomer, unassigned) [37b], for which the “ΔTm Hu-AQ” value in experiment [1] turned out to be 9.4 °C. In addition, the “ΔTm Hu-WT” value in experiment [2] was 8.1 °C. At Human STING (setting [5]), this molecule showed an EC50 of 4.5 µM. The “ΔTm Ms-WT” value in experiment [3] was found to be 12.3 °C. For the same molecule, the “ΔTm Hu-REF” value in experiment [4] came to 3.4 °C.
Regarding `O=c1c2ncn([C@@H]3O[C@@H]4COP(=O)(S)O[C@H]5[C@@H](O)[C@H](n6cc7c8c(ncnc86)NCCC7)O[C@@H]5COP(=O)(S)O[C@@H]3[C@@H]4F)c2ncn1CCO` (single isomer, unassigned) [39a], the ΔTm at 500 µM came out at 12.9 °C in experiment [1], 10.4 °C in experiment [2], 15 °C in experiment [3] and 5.7 °C in experiment [4]. Besides, at Human STING (setting [5]), the EC50 worked out at 0.19 µM.
Take `NCCNc1nc(N)c2ncn([C@@H]3O[C@@H]4COP(=O)(S)O[C@H]5[C@@H](O)[C@H](n6cc7c8c(ncnc86)NCCC7)O[C@@H]5COP(=O)(S)O[C@@H]3[C@@H]4F)c2n1` (single isomer, unassigned) [42a]: the ΔTm at 500 µM in experiment [1] stood at 9 °C; in experiment [2] it was 6.5 °C; in experiment [3], 11.2 °C; in experiment [4], 2.8 °C. Also, at Human STING (setting [5]), the EC50 was determined as 4.2 µM.
Turning to `NCCNc1nc(N)c2ncn([C@@H]3O[C@@H]4COP(=O)(S)O[C@H]5[C@@H](O)[C@H](n6cc7c8c(ncnc86)NCCC7)O[C@@H]5COP(=O)(S)O[C@@H]3[C@@H]4F)c2n1` (single isomer, unassigned) [42b], the “ΔTm Hu-AQ” value in experiment [1] came out at 7.4 °C. The “ΔTm Hu-WT” value in experiment [2] worked out at 5.3 °C. At Human STING (setting [5]), this molecule showed an EC50 of 4.7 µM. The “ΔTm Ms-WT” value in experiment [3] is 10.6 °C. In addition, the “ΔTm Hu-REF” value in experiment [4] worked out at 1.4 °C.
As to `O=c1c2ncn([C@@H]3O[C@@H]4COP(=O)(S)O[C@H]5[C@@H](F)[C@H](n6cc7c8c(ncnc86)NCCC7)O[C@@H]5COP(=O)(S)O[C@@H]3[C@@H]4F)c2ncn1CCO` (single isomer, unassigned) [44a], the ΔTm at 500 µM was determined as 18.2 °C in experiment [1], 13.4 °C in experiment [2], 19.3 °C in experiment [3] and 8.7 °C in experiment [4]. The response on Human STING (setting [5]) was half-maximal at 0.21 µM (EC50).
On to `NCCNc1nc(N)c2ncn([C@@H]3O[C@@H]4COP(=O)(S)O[C@H]5[C@@H](F)[C@H](n6cc7c8c(ncnc86)NCCC7)O[C@@H]5COP(=O)(S)O[C@@H]3[C@@H]4F)c2n1` (single isomer, unassigned) [45a], for which the ΔTm at 500 µM in experiment [1] turned out to be 10.8 °C; in experiment [2] it was 8.9 °C; in experiment [3], 12.3 °C; in experiment [4], 4.4 °C. In addition, the EC50 on Human STING (setting [5]) came to 1.2 µM.
